# Test results from PubChem BioAssay (NCI).
#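 Protocol summary: plate cells (96-well), add compound at 5 concentrations, incubate 48 h, interpolate endpoints linearly. TGI is the concentration that stops growth completely.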
# Legend:
# Experiment in all cases: growth of human tumour cells (NCI), 48 h
# SK-MEL-5 melanoma = system: SK-MEL-5 melanoma
# SNB-75 CNS = system: SNB-75 CNS
# CAKI-1 renal = system: CAKI-1 renal
# SW-620 colon = system: SW-620 colon
# COLO 205 colon = system: COLO 205 colon
# SK-OV-3 ovarian = system: SK-OV-3 ovarian
# DLD-1 colon = system: DLD-1 colon
# KM12 colon = system: KM12 colon
# OVCAR-3 ovarian = system: OVCAR-3 ovarian
# DMS 273 small cell lung = system: DMS 273 small cell lung
# OVCAR-4 ovarian = system: OVCAR-4 ovarian
# SNB-19 CNS = system: SNB-19 CNS
# HOP-62 NSCLC = system: HOP-62 NSCLC
# RPMI-8226 leukemia = system: RPMI-8226 leukemia
# SF-268 CNS = system: SF-268 CNS
# UACC-62 melanoma = system: UACC-62 melanoma
# 786-0 renal = system: 786-0 renal
# OVCAR-5 ovarian = system: OVCAR-5 ovarian
# NCI-H522 lung = system: NCI-H522 lung
# HOP-92 NSCLC = system: HOP-92 NSCLC
# DMS 114 small cell lung = system: DMS 114 small cell lung
# UACC-257 melanoma = system: UACC-257 melanoma
# LOX IMVI melanoma = system: LOX IMVI melanoma
# MOLT-4 leukemia = system: MOLT-4 leukemia
# CCRF-CEM leukemia = system: CCRF-CEM leukemia
# ACHN renal = system: ACHN renal
# UO-31 renal = system: UO-31 renal
# SK-MEL-28 melanoma = system: SK-MEL-28 melanoma
# TK-10 renal = system: TK-10 renal
# K-562 leukemia = system: K-562 leukemia
# HCT-15 colon = system: HCT-15 colon
# RXF 393 renal = system: RXF 393 renal
# SNB-78 CNS = system: SNB-78 CNS
# HT29 colon = system: HT29 colon
# U251 CNS = system: U251 CNS
# SF-539 CNS = system: SF-539 CNS
# A498 renal = system: A498 renal
# HCC-2998 colon = system: HCC-2998 colon
# OVCAR-8 ovarian = system: OVCAR-8 ovarian
# MALME-3M melanoma = system: MALME-3M melanoma
# KM20L2 colon = system: KM20L2 colon
# NCI-H23 lung = system: NCI-H23 lung
# NCI-H460 lung = system: NCI-H460 lung
# IGROV1 ovarian = system: IGROV1 ovarian
# M19-MEL melanoma = system: M19-MEL melanoma
# EKVX NSCLC = system: EKVX NSCLC
# SK-MEL-2 melanoma = system: SK-MEL-2 melanoma
# M14 melanoma = system: M14 melanoma
# HOP-18 NSCLC = system: HOP-18 NSCLC
# A549 NSCLC = system: A549 NSCLC
# SN12C renal = system: SN12C renal
# RXF-631 renal = system: RXF-631 renal
structure (smiles),measurement,setting,value
Cc1cc(C)nc(NS(=O)(=O)c2ccc(Nc3c4ccccc4nc4c(C(=O)Nc5ccc(S(=O)(=O)N=C(N)N)cc5)cccc34)cc2)n1,TGI,SK-MEL-5 melanoma,> 100 µM
same,TGI,SNB-75 CNS,88.5 µM
same,TGI,CAKI-1 renal,> 100 µM
same,TGI,SW-620 colon,> 100 µM
same,TGI,COLO 205 colon,> 100 µM
same,TGI,SK-OV-3 ovarian,> 100 µM
same,TGI,DLD-1 colon,> 100 µM
same,TGI,KM12 colon,> 100 µM
same,TGI,OVCAR-3 ovarian,> 100 µM
same,TGI,DMS 273 small cell lung,> 100 µM
same,TGI,OVCAR-4 ovarian,> 100 µM
same,TGI,SNB-19 CNS,> 100 µM
same,TGI,HOP-62 NSCLC,> 100 µM
same,TGI,RPMI-8226 leukemia,> 100 µM
same,TGI,SF-268 CNS,> 100 µM
same,TGI,UACC-62 melanoma,> 100 µM
same,TGI,786-0 renal,> 100 µM
same,TGI,OVCAR-5 ovarian,> 100 µM
same,TGI,NCI-H522 lung,> 100 µM
same,TGI,HOP-92 NSCLC,> 100 µM
same,TGI,DMS 114 small cell lung,> 100 µM
same,TGI,UACC-257 melanoma,> 100 µM
same,TGI,LOX IMVI melanoma,> 100 µM
same,TGI,MOLT-4 leukemia,> 100 µM
same,TGI,CCRF-CEM leukemia,> 100 µM
same,TGI,ACHN renal,> 100 µM
same,TGI,UO-31 renal,> 100 µM
same,TGI,SK-MEL-28 melanoma,> 100 µM
same,TGI,TK-10 renal,> 100 µM
same,TGI,K-562 leukemia,> 100 µM
same,TGI,HCT-15 colon,> 100 µM
same,TGI,RXF 393 renal,85.1 µM
same,TGI,SNB-78 CNS,> 100 µM
same,TGI,HT29 colon,> 100 µM
same,TGI,U251 CNS,> 100 µM
same,TGI,SF-539 CNS,> 100 µM
same,TGI,A498 renal,> 100 µM
same,TGI,HCC-2998 colon,> 100 µM
same,TGI,OVCAR-8 ovarian,> 100 µM
same,TGI,MALME-3M melanoma,> 100 µM
same,TGI,KM20L2 colon,> 100 µM
same,TGI,NCI-H23 lung,> 100 µM
same,TGI,NCI-H460 lung,> 100 µM
same,TGI,IGROV1 ovarian,> 100 µM
same,TGI,M19-MEL melanoma,> 100 µM
same,TGI,EKVX NSCLC,> 100 µM
same,TGI,SK-MEL-2 melanoma,> 100 µM
same,TGI,M14 melanoma,> 100 µM
same,TGI,HOP-18 NSCLC,> 100 µM
same,TGI,A549 NSCLC,> 100 µM
same,TGI,SN12C renal,> 100 µM
same,TGI,RXF-631 renal,> 100 µM
